Assay results: patent US4022889A, “Therapeutic compositions of antibiotic U-44,590 and methods for using the same” (The Upjohn Company, priority 1975, dated 1977)
In brackets after ≈: the same amount, converted by molar mass. Read-outs that look alike come from different tables or passages of the source.

Experiments:
[1] = test system: Proteus vulgaris; assay: In vivo testing in infected mice
Excerpt: (§1) In vivo testing of U-44,590 in mice infected with selected microorganisms is as follows: […]

[2] = test system: Proteus mirabilis; assay: In vivo testing in infected mice; conditions: IP challenge 1259 LD50, read-out: Activity (CD50)
Excerpt: as §1

[3] = test system: Salmonella flexneri; assay: In vivo testing in infected mice; conditions: IP challenge 40 LD50, read-out: Activity (CD50)
Excerpt: as §1

[4] = test system: Streptococcus hemolyticus; assay: In vivo testing in infected mice; conditions: Streptococcus pyogenes, Oral route, IP challenge 100 LD50, read-out: Activity (CD50)
Excerpt: as §1

[5] = test system: Escherichia coli; assay: In vivo testing in infected mice; conditions: IP challenge 79 LD50, read-out: Activity (CD50)
Excerpt: as §1

[6] = Solubilities; assay type: physicochemical
[7] = test system: Escherichia coli; assay: Antibacterial activity (statement)
[8] = test system: Gram-negative and Gram-positive bacteria; assay: Antibacterial activity (statement); conditions: for example, Streptococcus hemolyticus, Klebsiella, Salmonella Sp., Serratia marcescens, Pasteurella multocida, Hemophilus Sp., Proteus morgani, Proteus rettgeri
[9] = test system: Herpes virus; assay: Activity against DNA viruses (statement); conditions: for example, the Herpes virus
[10] = test system: Herpes simplex virus; assay: Antiviral activity in mice inoculated intravenously with Herpes simplex virus; assay type: in vivo; conditions: 400, 200 and 100 mg./kg./dose subcutaneously, four times daily, days 0-4; 40 LD50 virus intravenously
Method: The following is an example of the antiviral activity of antibiotic U-44,590. The antibiotic is administered subcutaneously to mice which are inoculated intravenously with Herpes simplex virus. Treatment is initiated 2 hours prior to viral infection and is followed by treatment four times daily for five consecutive days. A detailed account of the materials and methods and results are as follows:
Male mice, weighing approximately 20 gm. each, are divided into 4 groups of 20. Group 1 is treated with saline, Group 2 with 400 mg./kg./dose (mkd) U-44,590, Group 3 with 200 mkd U-44,590, and Group 4 with 100 mkd U-44,590. The antibiotic is dissolved in saline and administered subcutaneously in the nape of the neck at 8 a.m., 12 noon, 4 p.m., and 8 p.m. on days 0, 1, 2, 3, and 4. Herpes virus at 10^^-1.5 dilution, 0.05 ml/mouse, equivalent to a viral dose of 40 LD50 s, is inoculated into the tail vein at 10 a.m. on day 0. Paralysis and death are recorded daily.
Hind leg paralysis usually preceded death by 1-2 days. All mice died that became paralyzed. Death pattern of the 4 groups, as shown in the curves which follow, illustrates the dose response obtained.

[11] = test system: Diplococcus pneumoniae; assay: Antibacterial activity, standard agar dilution test; assay type: cell-based; conditions: Streptococcus pneumoniae, 16 h, 1 strain, Brain Heart Infusion, 37° C., 16-18 hours, read-out: Inhibition
Method: (§2) The above antibacterial spectrum was obtained by a standard agar dilution test with the following media and conditions:
(§3) Difco Brain Heart Infusion Medium was used for all test bacteria except P. multocida and Hemophilus species which were grown in Difco Blood Agar Base with 5% defibrinated rabbit blood. All were grown aerobically at 37° C. (except Hemophilus species, grown anaerobically) 16-18 hours. Inocula were grown overnite (16-18 hours) at 37° C. and used to seed agar at the rate of 0.025 ml. of 10^^-3 dilution (approximately 2500 to 25,000 bacteria per drop of inoculum).

[12] = test system: Serratia marcescens; assay: as above; assay type: cell-based; conditions: 16 h, 2 strains, Brain Heart Infusion, 37° C., 16-18 hours, read-out: Inhibition
Method: as §2, §3

[13] = test system: Staphylococcus aureus; assay: as above; assay type: cell-based; conditions: 16 h, 1 strain, Brain Heart Infusion, 37° C., 16-18 hours, read-out: Inhibition
Method: as §2, §3

[14] = test system: Proteus vulgaris; assay: as above; assay type: cell-based; conditions: 16 h, 3 strains, Brain Heart Infusion, 37° C., 16-18 hours, read-out: Inhibition
Method: as §2, §3

[15] = test system: Proteus mirabilis; assay: as above; assay type: cell-based; conditions: 16 h, 3 strains, Brain Heart Infusion, 37° C., 16-18 hours, read-out: Inhibition
Method: as §2, §3

[16] = test system: Streptococcus hemolyticus; assay: as above; assay type: cell-based
Method: as §2, §3

[17] = test system: Proteus morgani; assay: as above; assay type: cell-based; conditions: 16 h, 3 strains, Brain Heart Infusion, 37° C., 16-18 hours, read-out: Inhibition
Method: as §2, §3

[18] = test system: Pseudomonas aeruginosa; assay: as above; assay type: cell-based; conditions: 16 h, 5 strains, Brain Heart Infusion, 37° C., 16-18 hours, read-out: Inhibition
Method: as §2, §3

[19] = test system: Pasteurella multocida; assay: as above; assay type: cell-based; conditions: 16 h, 1 strain, Blood Agar Base with 5% defibrinated rabbit blood, 37° C., 16-18 hours, read-out: Inhibition
Method: as §2, §3

## CN1CN([C@H]2C[C@H](O)[C@@H](CO)O2)C(=O)NC1=O [U-44,590, 1(2-deoxy-β-D-erythro-pentofuranosyl)-5,6-dihydro-5-methyl-s-triazine-2,4(1H,3H)-dione]
[1]; po, IP challenge 79 LD50, read-out: Activity (CD50)
  ED50: < 62.5 mg/kg
[1]; po, IP challenge 150 LD50 (line without organism name below Proteus vulgaris), read-out: Activity (CD50)
  ED50: ~30 mg/kg
[1]; sc, Subcutaneous route, IP challenge 79 LD50, read-out: Activity (CD50)
  ED50: 100 mg/kg
[2]; Oral route
  ED50: 101 mg/kg
[2]; sc, Subcutaneous route
  ED50: 152 mg/kg
[3]; Oral route
  ED50: 62.5 mg/kg
[3]; sc, Subcutaneous route
  ED50: 38 mg/kg
[4]
  ED50: > 160 mg/kg
[5]; Oral route
  ED50: 218 mg/kg
[5]; sc, Subcutaneous route
  ED50: 141 mg/kg
[6]; in Me2 CO, EtOAc, hydrocarbons, CH2 Cl2 and CHCl3
  Solubility: relatively insoluble
[6]; in water, and lower alcohols, for example, methanol and ethanol
  Solubility: Highly soluble
[7]
  Activity against Escherichia coli: active against Escherichia coil
[8]
  Effect on growth of bacteria: adversely affecting the growth of Gram-negative and Gram-positive bacteria
[9]
  Activity against DNA viruses: active against DNA viruses
[10]
  Death pattern, statistical analysis of the results at day 11: all 3 treated groups are significantly different from the control group (1)
[11]
  MIC: 500 µg/mL (≈ 2040 µM)
[12]
  MIC: 125 µg/mL (≈ 510 µM)
[13]
  MIC: > 1000 µg/mL
[14]
  MIC: > 1000 µg/mL
[15]
  MIC: > 1000 µg/mL
[16]
  Activity against Streptococcus hemolyticus: active against Streptococcus hemolyticus
[16]; Streptococcus pyogenes, 16 h, Streptococcus hemolyticus, 1 strain, Brain Heart Infusion, 37° C., 16-18 hours, read-out: Inhibition
  MIC: 15.2 µg/mL (≈ 62 µM)
[17]
  MIC: 62.5 to 250 µg/mL (≈ 255 to 1020 µM)
[18]
  MIC: > 1000 µg/mL
[19]
  MIC: 125 µg/mL (≈ 510 µM)
